# From patent US12017992B2, “Compounds for modulating mitochondrial function” (Mayo Foundation for Medical Education and Research, priority 2015, dated 2024)
# Values joined by “and” are separate entries in the source; they are usually repeats but may differ in a detail not shown here. Identical values can stand only once. “Also recorded” adds a separate entry of the source. Like-named read-outs stand apart in the source and are kept apart here.
# How the values were obtained:
# MC65 cells = assay: Efficacy against Aβ toxicity in MC65 Tet on/off cells (MTT assay); assay type: cell-based; conditions: for cell protective activity in Aβ-producing MC65 cells: 2.5 μM and 5 μM, compared to CP2; for EC50: nonlinear regression
# Description: FIGS. 4A and 4B are a pair of graphs plotting survival of MC65 cells after treatment with the indicated compounds, in the presence (Tet/off) or absence (Tet/on) of Aβ expression. MC65 cells were cultured for 72 hours in the presence (on) or absence (off) of tetracycline in OPTI-MEM media without serum. […] Cell viability was measured with an MTT assay 72 hours later. Experiments were performed in triplicates. Every 96-well plate had its own on/off control. Four experimental compounds were tested per each plate. Experiments were repeated independently twice.
# (§1) FIGS. 5A and 5B are a pair of graphs plotting survival of MC65 cells after treatment with the indicated compounds, in the presence (Tet/off) or absence (Tet/on) of Aβ expression. MC65 cells were cultured for 72 hours in the presence (on) or absence (off) of tetracycline in OPTI-MEM media without serum. Cells (Tet/on and Tet/off) at the time of plating were treated every 24 hours with vehicle (0.05% final DMSO) or experimental compounds (FIG. 5A, C458-C461; FIG. 5B, C462-C465) at 2.5 μM and 5 μM. Cell viability was measured with an MTT assay 72 hours later. Experiments were performed in triplicates. Every 96-well plate had its own on/off control. Four experimental compounds were tested per each plate. Experiments were repeated independently twice.
# as §1, with “FIG. 6A is” for “FIGS. 5A and 5B are”, “graph” for “pair of graphs”, “(C470-C473)” for “(FIG. 5A, C458-C461; FIG. 5B, C462-C465)”, “twice. […] Toxicity of C463 under the same experimental conditions is shown for comparison. Cells were treated with 5 μM of each compound.” for “twice.”
# FIGS. 9A-9D are a series of graphs plotting the half maximal effective concentration (EC50) for each of four experimental compounds against Aβ toxicity in MC65 Tet on/off cells. FIG. 9A, C455; FIG. 9B, C458; FIG. 9C, C460; FIG. 9D, C472.
# FIGS. 11A and 11B are graphs plotting survival of MC65 cells cultured for 72 hours in the presence (on; FIG. 11A) or absence (off, FIG. 11B) of tetracycline in OPTI-MEM media without serum. Cells (Tet/on and Tet/off) at the time of plating were treated with either vehicle (0.05% final DMSO) or experimental compounds at 2.5 μM every 24 hours. Cell viability was measured with an MTT assay 72 hours later. Experiments were performed in triplicate, and every 96-well plate had its own on/off control. Four experimental compounds were tested per plate. Experiments were repeated independently twice.
# FIGS. 15A and 15B are graphs plotting percent survival of MC65 cells cultured in the presence of tetracycline (Tet-On) (FIG. 15A) or without tetracycline (Tet-off) (FIG. 15B) in OPTI-MEM media without serum. […] Cell viability was measured with an MTT assay 72 hours after plating. Experiments were performed in triplicate, and were repeated independently twice.
# The efficacy of all 24 compounds against Aβ toxicity was evaluated in MC65 cells. […] The viability of MC65 cells expressing Aβ (Tet/off, 40% viability) or not expressing Aβ (Tet/on, 100% viability) was measured after treatment with individual compounds. Results for all 24 compounds against Aβ toxicity are presented in FIGS. 4A, 4B, 5A, 5B, 6A, and 6B.
# To further characterize the efficacy of these four compounds, the half maximal effective concentration (EC50) against Aβ toxicity in MC65 cells was measured using an MTT assay. […]
# [1] = test system: cancer cell lines (HeLa, Panc1, p53−/− ms TCL, Patu, Su); assay: Survival of cancer cell lines (MTT assay); assay type: cell-based, human; conditions: 5 μM or 50 μM, particularly at the higher dose
# Description: (§2) FIGS. 20A-20G are a series of graphs plotting the effect of the indicated compounds on survival of various cancer cells vs. control. FIG. 20A, HeLa cervical cancer cells; FIG. 20B, Panc1 pancreatic cancer cells; FIG. 20C, P-WT: mouse embryonic fibroblasts (MEFs; control); FIG. 20D, P++: MEFs; FIG. 20E, p53−/− ms T-cell lymphoma (TCL) cells; FIG. 20F, Patu pancreatic cancer cells; FIG. 20G, Su pancreatic cancer cells.
# (§3) The following […] cell lines were used: HeLa (cervical cancer, FIG. 20A); Panc1 (pancreatic cancer, FIG. 20B); P-WT MEFs (control, FIG. 20C), P++ MEFs (accelerated aging phenotype, FIG. 20D) p53−/− ms TCL (FIG. 20E); Patu (pancreatic cancer, FIG. 20F), and Su (pancreatic cancer, FIG. 20G).
# ATP production = assay: ATP levels in primary embryonic cortical neurons; assay type: cell-based, mouse; conditions: 10 nM to 5 μM, 24 hours
# Description: FIGS. 12A and 12B are a pair of graphs plotting ATP levels in primary embryonic cortical neurons that were seeded on 96-well plates at 30,000 cells per well and treated with the indicated compounds at concentrations ranging from 10 nM to 5 μM, as indicated. ATP levels were measured 24 hours later using an ATP determination Kit (Life Technologies; Carlsbad, CA). ATP levels are expressed as a percent of vehicle treated (control) cells. All experiments were performed twice in 6 replicates.
# FIG. 17 is a graph plotting ATP levels in primary embryonic cortical neurons after seeding on a 96-well plate at 30,000 cells per well and being treated seven days later with the indicated compounds at concentrations of 100 nM, 2 μM, and 5 μM. ATP levels were measured 24 hours after treatment using the bioluminescent CellTiter-GLO 2 assay (Promega, Madison, WI). All experiments were performed in 6 replicates.
# To further characterize these nine new compounds, Complex I activity was measured in isolated mitochondria, and levels of ATP, NAD+, and NADH were measured in primary mouse embryonic cortical neurons (FIGS. 16-18).
# [2] = test system: P++ MEFs (accelerated aging phenotype); assay: Growth of P++ mouse embryonic fibroblasts (MTT assay); assay type: cell-based; conditions: 5 μM or 50 μM
# Description: as §2, §3
# NAD+ and NADH levels = NAD+ and NADH levels in primary embryonic cortical neurons (NAD+/NADH-GLO assay); assay type: cell-based, mouse; conditions: among C687-C695; 100 nM, 2 μM and 5 μM
# Description: FIGS. 14A and 14B are graphs plotting NAD^+ and NADH levels (FIG. 14A) or the NAD^+/NADH ratio (FIG. 14B) in primary embryonic cortical neurons after treatment with the indicated compounds. Neurons were seeded on 96-well plates at 30,000 cells per well. Seven days later, cells were treated with each compound at 2 μM. NAD^+ and NADH levels were measured 24 hours later using the bioluminescent NAD^+/NADH-GLO assay (Promega; Madison, WI). NAD^+ and NADH levels are expressed as a percent of vehicle treated (control) cells (FIG. 14A). All experiments were performed in 6 replicates.
# FIGS. 18A-18C are graphs plotting the level of NAD+ (FIG. 18A), the level of NADH (FIG. 18B), and the ratio of NAD+/NADH (FIG. 18C) in primary embryonic cortical neurons that were seeded on a 96-well plate at 30,000 cells per well and treated seven days later with the indicated compounds at concentrations 100 nM, 2 μM and 5 μM. NAD+, NADH, and NAD+/NADH ratio were measured using a bioluminescent NAD+/NADH-GLO assay (Promega). All experiments were performed in 6 replicates.
# [3] = In vivo toxicity and histology of C458 in WT mice; set-up: species or system mouse; conditions: 50 mg/kg for one month ad libitum in drinking water
# Description: To evaluate the toxicity of C458 in vivo, 2-month old breeding WT mice were treated with 50 mg/kg of C458 via drinking water. Untreated littermates were used as controls. After one month of treatment, adult and newborn animals were sacrificed and tissue was collected for histological examination.
# [4] = PK of C458 in mice, plasma and brain by LC-MS/MS; assay type: in vivo, mouse; conditions: for Brain Concentration / Plasma Concentration / concentration at 0.5 h / concentration at 1 h / concentration at 2 h: single mouse; for concentration at 0.5 h / concentration at 1 h / concentration at 2 h / half-life / Kp: mouse; for concentration at 0.5 h / concentration at 1 h / concentration at 2 h: 2 mg/kg
# Description: FIG. 10 is a graph plotting the elimination rate for C458 in brain and plasma of mice treated with 2.5 mg/kg of the compound via intrafemoral vein injection. Animals were sacrificed at 30 minutes, 1 hour, and 2 hours post injection.
# The feasibility of developing the C458 series was evaluated by determining the in vivo PK profile for C458. Re-synthesized C458 was administered intravenously to wild type mice at 2 mg/kg. Frozen serum and brain tissue samples were analyzed using a bioanalytical LC-MS/MS method.
# A rough estimation of elimination rate and half-life of C458 was determined in vivo by delivering a dose of 2.5 mg/kg to each mouse via intrafemoral vein injection. Each group of animals (n=2) was sacrificed at 30 minutes, 1 hour, and 2 hours post injection. Blood and brain tissue was collected, flash frozen, and the concentration of C458 was estimated using a LC-MS/MS assay with a linear calibration curve from 1 ng/ml to 1 ug/ml in both plasma and brain.
# For rough estimation of elimination rate and half-life, a one-compartment model and the first rate elimination was assumed. Plotting (Ln) of concentration vs. time provided the elimination rate and half-life of C458 in plasma and the brain (FIG. 10).
compound,measurement,setting,value
Cc1cc2c(c(=O)o1)C=C1CCN(C(C)CCc3ccc(O)cc3)C[C@@H]1O2 (some centres unmarked) [Compound C455],cell protective activity in Aβ-producing MC65 cells,MC65 cells; 72 hours,promising cell protective activity
same,growth of cancer cell lines,[1],suppressed growth of the cancer cell lines tested
same,effect on ATP production,ATP production,modestly reduced ATP production
same,growth of P++ MEFs,[2],suppress the growth
Cc1cccc(O[C@@H]2CCC[C@H](C(C)CN(Cc3ccncc3)C(C)C)C2)c1 (some centres unmarked) [Compound C694],efficacy in increasing NADH and decreasing NAD+/NADH ratio,NAD+ and NADH levels,highest efficacy
Cc1cccc(O[C@@H]2CCC[C@H](C(C)CN(C)Cc3ccncc3)C2)c1 (some centres unmarked) [Compound C693],efficacy in increasing NADH and decreasing NAD+/NADH ratio,NAD+ and NADH levels,highest efficacy
"Cc1cccc(O[C@@H]2CCC[C@H](C(C)CNCc3ccncc3)C2)c1 (relative stereo) [Compound C458, cis-(N-(pyridin-4-ylmethyl)-2-(3-(m-tolyloxy)cyclohexyl)propan-1-amine)]",cell protective activity in Aβ-producing MC65 cells,MC65 cells; 72 hours,promising cell protective activity
same,fold higher efficacy (lower EC50) of C458 than CP2,MC65 cells; EC50 against Aβ toxicity,20- to 30 fold and 30 fold
same,fold higher efficacy of C458 than C455 and C460,MC65 cells; EC50 against Aβ toxicity,100 fold
same,EC50,"MC65 cells; MC65, MTT assay",~4 nM
same,EC50,MC65 cells; MTT assay,3.59 nM
same,effect on ATP production,ATP production,modestly reduced ATP production
same,histology of adult WT mice,[3],did not cause histological abnormalities
same,pathology of newborn mice conceived by treated breeding WT mice,[3],no pathological abnormalities were detected
same,Brain Concentration,[4]; 0.5 hr,390 ng/g
same,Plasma Concentration,[4]; 0.5 hr,41.4 ng/mL
same,Brain Concentration,[4]; 1 hr,149 ng/g
same,Plasma Concentration,[4]; 1 hr,15.2 ng/mL
same,Brain Concentration,[4]; 2 hr,76.4 ng/g
same,Plasma Concentration,[4]; 2 hr,10.3 ng/mL
same,bioavailability,[4]; from elimination rate and half-life in plasma and brain,good bioavailability
same,CNS penetration,"[4]; mice, intravenous",significant CNS penetration; also recorded: penetrates the blood brain barrier and accumulates in the brain
same,concentration at 0.5 h,"[4]; brain, intravenous, 0.5 hr, read-out: Brain Concentration",316 ng/g
same,concentration at 1 h,"[4]; brain, intravenous, 1 hr, read-out: Brain Concentration",118 ng/g
same,concentration at 2 h,"[4]; brain, intravenous, 2 hr, read-out: Brain Concentration",68.2 ng/g
same,half-life,"[4]; brain, intravenous, 2.5 mg/kg intrafemoral vein injection, one-compartment model, first rate elimination, read-out: estimated half-life in brain",42 min
same,Kp,"[4]; brain, intravenous, 2.5 mg/kg intrafemoral vein injection, read-out: concentration in the brain, times higher than in plasma",7 to 8
same,Kp,"[4]; brain, iv, wild type mice, intravenously at 2 mg/kg, read-out: concentration in brain tissue, times higher (w/v) than in plasma",7 to 10
same,concentration at 0.5 h,"[4]; plasma, intravenous, 0.5 hr, read-out: Plasma Concentration",43.7 ng/mL
same,concentration at 1 h,"[4]; plasma, intravenous, 1 hr, read-out: Plasma Concentration",13 ng/mL
same,concentration at 2 h,"[4]; plasma, intravenous, 2 hr, read-out: Plasma Concentration",9.83 ng/mL
same,half-life,"[4]; plasma, intravenous, 2.5 mg/kg intrafemoral vein injection, one-compartment model, first rate elimination, read-out: estimated half-life in plasma",48 min
same,half-life,"[4]; serum, iv, wild type mice, intravenously at 2 mg/kg, read-out: apparent t1/2 in the blood",48 min
Cc1cc2c(c(=O)o1)C=C1CCN(C(=O)Cc3cccc(O)c3)C[C@@H]1O2 [Compound C460],cell protective activity in Aβ-producing MC65 cells,MC65 cells; 72 hours,promising cell protective activity
same,"efficacy against Aβ toxicity (representative images, FIG. 6B)","MC65 cells; 5 μM, 72 hours, Tet/on and Tet/off",efficacy
same,growth of cancer cell lines,[1],suppressed growth of the cancer cell lines tested
same,effect on ATP production,ATP production,little or no effect
same,growth of P++ MEFs,[2],suppress the growth
